Laboratory results: patent publication US20260242320A1, “USE OF CANNABIDIOL DERIVATIVE IN PREPARATION OF MEDICAMENT” (priority 2023, published 2026)
Entries after “also recorded” stand apart in the source; their conditions may differ.

Tests used:
[1] = system: LPS-induced proinflammatory factor nitric oxide (NO) in immunocompetent BV-2 cells; experiment: NO assay: inhibition of LPS-induced NO overproduction in BV-2 cells; format: cell-based; conditions: Mus musculus; BV-2 cells, LPS 200 ng/mL, 24 h; read-out: Antineuroinflammatory activity (IC50 inhibiting LPS-induced NO)
Description: BV-2 cells were seeded at a density of 5×10^4 cells per milliliter in 96-well plates. After 24 h incubation, the media was removed and changed to DMEM without FBS and penicillin-streptomycin. LPS (200 ng/mL) and different concentrations of compounds were added. After 24 h treatment, 100 μL of media was transferred to flat black 96-well micro fluor plates, and then, 10 μL of 0.05 mg/mL 2,3-diaminonaphthalene was added and incubated in the dark for 15 min. 5 μL of NaOH (3 M) was subsequently added to each well to quench the reaction. NO inhibition ratio was analyzed by a SYNERGY H1 Microplate Reader (BioTek Instruments, Carlsbad, CA, USA) with excitation at 360 nm and emission at 430 nm. The fluorescence value of the LPS-treated group was set as 100%.

BV-2 cellular viability = experiment: Cell viability / cytotoxicity by crystal violet staining; format: cell-based
Description: 100 μL of culture medium were transferred to a black 96-well plate for later use. Following removal of old culture medium, 100 μL of 4% paraformaldehyde was added for fixation. Fixation was performed for 5 minutes. Paraformaldehyde was then removed, and 100 μL of 0.05% crystal violet was added. The resultant mixture was incubated for 15 minutes, after which time crystal violet was removed and the mixture was slowly rinsed with water three times. Next, 150 μL of ethanol was added, and the mixture was incubated for 15 minutes. After incubation, the absorbance was measured at 540 nm using a spectrophotometer. Viability (%)=100× Fluorescence values of the dosing group/Fluorescence values of the blank group.
Cell viability was determined by crystal violet staining. Briefly, BV-2 cells were treated as indicated in the NO assay. The media was removed, and then 4% paraformaldehyde was added to fix the cells for 5 min. Cells were stained with 100 μL 0.05% crystal violet for 15 min and washed with water 2 times. Next, 150 μL of ethanol was added to each well, and the plate was incubated for 15 min at room temperature. Absorbance at 540 nm was measured using a SYNERGY H1 Microplate Reader.

morphine-dependent mice = experiment: Naloxone-precipitated morphine withdrawal jumps; format: in vivo; conditions: 2 μg/kg, 20 μg/kg, 0.2 mg/kg i.p., 0.2 mg/kg
Description: Mice were intraperitoneally injected with an escalating dose of morphine three times daily for 3 days (5, 20, and 40 mg/kg) to induce addiction. On the fourth day, mice were given morphine (40 mg/kg) or vehicle (5 mL/kg). […] The withdrawal was precipitated by naloxone. Each mouse was placed into a transparent plastic box immediately, and the number of jumps was recorded for 15 min.

[2] = system: microglial activation marker Iba1; experiment: Iba1 immunofluorescence staining of brain sections; format: in vivo, mice; conditions: chronic morphine
Description: Mice were anesthetized with tribromoethanol following the CPP assay and intracardially perfused with 8 mL saline; the brains were then stripped out and embedded in paraffin. The brain was sectioned coronally at 5 μm thickness on a vibrating microtome. Paraffin-processed tissues were deparaffinized in xylene and rehydrated with a graded alcohol solution. The sections were placed in 0.01 M citrate buffer (pH 6.0) and heated in a microwave oven for hot antigen repair. These sections were incubated with goat serum for 20 min at 37° C. and then with rabbit anti-Iba1 monoclonal antibody at 4° C. overnight. After three washes with PBS, the sections were incubated with an Alexa-488-conjugated secondary antibody for 1 h in the dark. Ultimately, followed by three washes with PBS twice for 5 min each, the sections were counterstained with DAPI and examined under a confocal microscope

[3] = system: lactate dehydrogenase A (LDHA) mRNA; experiment: LDHA mRNA in LPS-treated BV-2 cells; format: cell-based; conditions: 3 hours
Description: Total RNA was extracted from cells or mouse brains using the RNeasy Mini Kit. Isolated RNA was reverse-transcribed into cDNA using an RT2 Easy First Strand cDNA Synthesis Kit following the manufacturer's protocols. PCR amplification was conducted using synthetic primers, SYBR Green, and a TOptical Real-Time qPCR Thermal Cycler (Analytik Jena, Thuringia, Germany). The data were analyzed by the […] method, and Rpl711 or Rpl27 was used as an internal control.

lactate in BV-2 culture = experiment: Extracellular lactic acid assay; format: cell-based; conditions: BV-2, 10 μM, LPS 200 ng/mL, 12 h
Description: BV-2 cells were seeded at a density of 5×10^5 cells per well in 6-well plates and incubated for 24 h. BV-2 cells were treated with 10 μM CIAC001 or 10 μM Compound 19b in the absence or presence of 200 ng/mL LPS for 12 h. Culture medium was collected and centrifuged (5000 g, 4° C.) for 5 min. The supernates were used for lactic acid contents determination by lactic acid assay kit (A019-2-1, Nanjing Jiancheng Bioengineering Institute).

[4] = system: 3×Tg Alzheimer's disease mice; experiment: Anxiety tests in Alzheimer's disease model mice (high plus maze, open field); format: in vivo; conditions: i.p., 45 days
Excerpt: For Alzheimer's disease behavioral experiments (Morris water maze, open field experiment, novel object recognition, Y-maze, and elevated cross maze), triple transgenic mouse models (B6:129-Psen1tm1Mpm Tg (APPswe, tauP301L) 1Lfa/J, 3×Tg) were purchased from the Jax Laboratory in the United States. The wild-type mice (C57BL/6J, WT) were purchased from Beijing Vital River Laboratory Animal Technology Co., Ltd. After 45 days of intraperitoneal injection of CIAC001, all mice were subjected to subsequent behavioral experiments. In order to minimize the use of mice, the mice are first tested for sufficient physical strength and normal mental states. Only one behavioral experiment is conducted per day based on the following schedule: day 1: open field test; day 2-3: novel object recognition; day 3: elevated plus maze; day 4: Y-maze; day 5-13: Morris water maze.
The elevated cross maze consisted of two intersecting open arms (25×5×0.5 cm) and two enclosed arms (25×5×16 cm) that were perpendicular to the open arms. A platform (5×5×0.5 cm) was placed in the center of the maze. […]
At the beginning of the experiment, the mouse was placed in the center area of the elevated cross maze, facing one of the enclosed arms. […] A camera connected to a computer was used to capture the mouse's movements, and the number of entries and time spent in the open and enclosed arms were recorded. […]

PKM2 = PKM2 (Mus musculus, UniProt P52480); experiment: Pull-down with probes 19e/19f and western blotting
Chain of PKM2 (P52480 whole entry): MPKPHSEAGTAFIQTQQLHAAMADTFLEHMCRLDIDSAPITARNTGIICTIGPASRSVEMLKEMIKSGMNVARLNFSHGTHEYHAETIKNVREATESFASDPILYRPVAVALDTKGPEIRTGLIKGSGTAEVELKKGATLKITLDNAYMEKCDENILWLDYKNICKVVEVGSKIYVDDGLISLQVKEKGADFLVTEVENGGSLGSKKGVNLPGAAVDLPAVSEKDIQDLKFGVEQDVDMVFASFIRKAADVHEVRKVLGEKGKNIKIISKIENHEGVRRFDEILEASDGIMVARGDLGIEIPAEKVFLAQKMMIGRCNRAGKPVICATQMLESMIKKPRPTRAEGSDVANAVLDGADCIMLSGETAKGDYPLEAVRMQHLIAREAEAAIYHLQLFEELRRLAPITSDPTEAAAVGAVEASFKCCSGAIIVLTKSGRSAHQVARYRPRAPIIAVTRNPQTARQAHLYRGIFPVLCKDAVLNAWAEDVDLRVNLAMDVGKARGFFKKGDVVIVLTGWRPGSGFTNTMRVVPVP
Description: The protein samples were separated by SDS-PAGE and transferred to PVDF membranes. The membranes were blocked with 5% nonfat dry milk for 1 h. The membranes were incubated with the corresponding primary antibody at 4° C. overnight and then washed with Tris-buffered saline with 0.1% Tween 20 (TBST) for 5 min each time and incubated for 1 h at room temperature with the secondary antibody-HRP conjugate. After washing with TBST, the membranes were developed using Super-Signal West Pico Chemiluminescent Substrate and visualized by a Tanon-5200 Multi. ImageJ was used for densitometric analysis.
BV-2 cells were treated with the probe Compound 19e (5 μM) or CIAC001 (20 μM) for 2 h at 37° C.; then, cells were transferred on ice and irradiated with 365 nm UV light for 30 min. Cells were washed with 3 mL PBS twice and lysed by buffer containing 250 mM HEPES (pH=7.9), 1.5 M KCl, 5 mM EDTA, 0.5% v/v NP-40, and 1% v/v protease inhibitor cocktail. The cell lysate was centrifuged at 4° C. and 12,000 g for 10 min, and the protein concentration was adjusted to 1 mg/mL by the BCA assay kit. […]
BV-2 cells were scraped with PBS; then, cells were lysed with buffer containing 250 mM HEPES (pH=7.9), 1.5 M KCl, 5 mM EDTA, 0.5% v/v NP-40, and 0.025% v/v protease inhibitor cocktail and incubated on ice for 30 min. […] The lysate was subjected to a click reaction as described above and analyzed by SDS-PAGE. […]

## C=C(C)[C@@H]1CCC(C)=C[C@H]1c1c(O)cc(C(C)n2nccn2)cc1O (stereo partly drawn) [CIAC001, (1′R,2′R)-4-(1-(2H-1,2,3-Triazol-2-yl)ethyl)-5′-methyl-2′-(prop-1-en-2-yl)-1′,2′,3′,4′-tetrahydro-[1,1′-biphenyl]-2,6-diol]
[1]
  IC50: 2.5 ± 0.7 µM
BV-2 cellular viability; Mus musculus, BV-2 cells, read-out: Cellular toxicity (IC50 inhibiting BV-2 cellular viability)
  IC50: 57.8 ± 7.6 µM
BV-2 cellular viability; vs CBD
  fold less cytotoxicity compared to CBD: 6.8 fold
morphine-dependent mice
  naloxone-precipitated withdrawal jumps: dose-dependently attenuated; also recorded: ameliorated
[2]
  expression of Iba1 in the mPFC: decreased the expression of Iba1
[3]
  LPS-induced LDHA mRNA overexpression: significantly inhibited
Lactate in BV-2 culture
  LPS-induced lactate release: significantly inhibited
[4]
  Alzheimer's disease induced anxiety (arm entry activity, grid traversal): restored arm entry activity and grid traversal
PKM2; high concentrations of free CIAC001
  binding of Compound 19e to PKM2 in presence of free CIAC001: competitively inhibited
PKM2; pull-down, western blot, BV-2
  binding with PKM (PKM2 vs PKM1) in situ and in vitro: directly binds with PKM2 rather than PKM1
